Source: patent US4390523A, “Sorbose for inhibiting fermentation acids in the mouth” (priority 1972, dated 1983)
Several values for one entry are separate records, joined by “and”; a condition that tells them apart may be missing. Equal entries are not always repeated. Entries after “also recorded” stand apart in the source; their conditions may differ. Where two headings read alike, the source gives them in different places.

Columns and labels:
[1] = system: oral bacteria (dilute human saliva); assay: Formation of acids and lowering of pH by fermentation by oral bacteria (Table III); format: cell-based; conditions: for pH of medium / NaOH necessary for neutralization: 1 ml of 18% solution in 10 ml medium; for pH of medium: saliva, 37° C.; for NaOH necessary for neutralization: N/40 NaOH; for formation of acids / acidification (conclusion) / lowering of the pH to: medium inoculated with dilute saliva
Description: A series of tubes containing 10 ml of a sugarless nutritive culture medium at pH 7 was prepared. These tubes were sterilized by passing them through an autoclave at 120° C. for 20 minutes.
1 ml of sterile water was introduced into a first series of five tubes to make a control series.
1 ml of a sterile 18% solution of dextrose (weight/volume=W/V) was introduced into a second series of five tubes.
1 ml of a sterile 18% solution of saccharose (W/V) was introduced into a third series of five tubes.
1 ml of a sterile 18% solution of sorbose (W/V) was introduced into a fourth series of five tubes.
The sterile solutions of dextrose, saccharose and sorbose were obtained by sterilizing filtration by the usual technique.
A dilution of human saliva was prepared for immediate use and four tubes of each series were inoculated with the same volume of dilute saliva.
The formation of acids was followed by electric measurement of the pH and by determination of the quantity of acids formed; this determination was effected with a N/40 sodium/hydroxide solution, phenolphthalein being used as a neutralization indicator; a first determination was made before incubation, the following four determinations after incubations of 3, 6, 10 and 24 hours, respectively, at 37° C.
The results are assembled in Table III (pH value and value of the number of ml of sodium hydroxide necessary for neutralization).

[2] = system: oral bacteria (dilute human saliva); conditions: background statement; cited from earlier work
[3] = cited from earlier work
[4] = Biological parameters of blood before and during oral administration of sorbose (Table II); conditions: WISTAR rats, oral ingestion
Description: (§4) This test was carried on for four weeks and three months. Each morning, 1 milliliter per 100 grams of body weight of a sorbose solute in water containing 0.330 g/ml was administered orally to each of the animals.
(§5) The examinations of the blood comprised the following:
(§6) determination of the true glycemia (glucose-oxydase dosage),
(§7) determination of the ionemia (chlorides-phosphates-bicarbonates-sodium-potassium), azotemia, proteinemia, albuminemia, calcemia, cholesterolemia, uricemia and creatinemia, the total bilirubinemia and the levels of the alkaline phosphatases, the creatine-phosphokinases and the glutamino-oxaloacetic transaminases (these determinations were effected with the aid of a Technicon SM A 6+SM A 12 autoanalyzer).
(§8) These biological tests were carried out first on animals fed normally and then on the same animals in the course of the following weeks during which sorbose was being administered as a supplement to the food ration, as hereinbefore described.

[5] = Acute toxicity and lethalness of sorbose in mice; format: in vivo, ROCKFELLER mouse; conditions: mouse, in vivo, ip; intraperitoneal; ROCKFELLER mice; Karber and Behrens method; read-out: lethal dose 50 (LD50)
Description: (§1) The toxicity of sorbose has been studied in a first series of tests.
(§2) The test animals were ROCKFELLER mice and WISTAR rats.
(§3) Thus, solutes of sorbose (concentrations used: 615, 700, 900, 1000 and 1100 mg per ml) were administered orally, intravenously and intraperitoneally in different doses and concentrations to male mice of the ROCKFELLER type and to male rats of the WISTAR type.

[6] = system: male mice of the ROCKFELLER type; assay: Acute toxicity and lethalness of sorbose in mice; format: in vivo, ROCKFELLER mouse; conditions: mice
Description: as §1, §2, §3

[7] = cited from earlier work; remark: listed apart in the source
[8] = Clinical observation and weight development during oral administration of sorbose (food value); format: in vivo, WISTAR rat; conditions: 0.330 g per 100 g of body weight orally
Excerpt: The food value of sorbose has been studied in a second series of tests.

[9] = Chromatographic examination of the urine of animals ingesting sorbose; format: in vivo, WISTAR rat
Description: Thus, sorbose was administered orally to rats of the WISTAR type, as a supplement to the usual food ration, in a dose of 0.330 grams per 100 grams of body weight; such a dose would correspond to a daily intake of 198 grams of sorbose in a 60 kg person. This test was carried on for four weeks and three months. Each morning, 1 milliliter per 100 grams of body weight of a sorbose solute in water containing 0.330 g/ml was administered orally to each of the animals.

[10] = system: ROCKFELLER mice and WISTAR rats; assay: Overall toxicity and tolerance tests of sorbose in mice and rats; format: in vivo, mouse; rat
Excerpt: as §1, §2

man = assay: Hypersorbemia produced in man; format: in vivo; conditions: 1 gram per kg, empty stomach, in one lot
Description: To complete the tests concerned with animals, tests were carried out for hypersorbemia produced in man (ingestion on an empty stomach in one lot of a dose of sorbose equivalent to 1 gram per kg of weight).

[11] = Urinary biological parameters before and during oral administration of sorbose (Table I); format: in vivo, WISTAR rat
Description: In the course of this experiment, detailed biological examinations concerning the urine and blood were carried out.
The urine examinations comprised the following: determination of the reducing power (copper-neocuproin method), determination of the true glycosuria (glucose-oxydase method), determination of the proteinuria, measurement of the urinary pH, determination of the urinary ionogram relating to the chlorine ions, sodium and potassium.

[12] = system: viscera: stomach, small intestine, large intestine, liver, kidneys and pancreas; assay: Anatomical and histopathological observations at the end of the tests; format: in vivo, WISTAR rat
Excerpt: At the end of the tests the animals were put to death so that anatomical and histopathological observations could be made.

[13] = system: male rats of the WISTAR type; assay: Acute toxicity and lethalness of sorbose in rats; format: in vivo, WISTAR rat; conditions: rats
Description: as §1, §2, §3

[14] = Acute toxicity and lethalness of sorbose in rats; format: in vivo, WISTAR rat; conditions: rat, in vivo, ip; intraperitoneal; WISTAR rats; Karber and Behrens method; read-out: lethal dose 50 (LD50)
Description: as §1, §2, §3

[15] = rat, in vivo, po
Description: as §4, §5, §6, §7, §8

[16] = prolonged administration orally and in high doses
[17] = 330 mg/100 g oral, a = first week, rats 1-6
[18] = 330 mg/100 g oral, b = fifth week, rats 1-6
[19] = 330 mg/100 g oral, c = thirteenth week, rats 1-6

## OC[C@H]1O[C@@](CO)(O[C@H]2O[C@H](CO)[C@@H](O)[C@H](O)[C@H]2O)[C@@H](O)[C@@H]1O [saccharose]
[1]; 0 hours
  pH of medium: 7.0
  NaOH necessary for neutralization: 2.50 mL
[1]; 3 hours
  pH of medium: 6.90
  NaOH necessary for neutralization: 2.45 mL
[1]; 6 hours
  pH of medium: 6.90
  NaOH necessary for neutralization: 2.40 mL
[1]; 10 hours
  pH of medium: 6.10
  NaOH necessary for neutralization: 3.20 mL
[1]; 24 hours
  pH of medium: 5.10
  NaOH necessary for neutralization: 6.10 mL
[1]
  formation of acids / acidification (conclusion): distinct acidification
  lowering of the pH to: 5.1
[2]
  cariogenic properties: has cariogenic properties
  formation of acids and lowering of pH under the action of mouth bacteria (general statement): give rise to a lowering of the pH and a considerable production of acids

## OC[C@@H](O)[C@H](O)[C@@H](O)CO [xylitol]
[3]; high doses
  laxative effect: laxative in high doses

## OC[C@@H](O)[C@@H](O)[C@H](O)[C@@H](O)CO [sorbitol]
[3]; in vivo
  laxative effect: laxative in high doses

## O=C(CO)[C@H](O)[C@@H](O)[C@H](O)CO [sorbose]
[4]
  tolerance (conclusion from the biological analyses): tolerated perfectly
[5]
  LD50: 13600 mg/kg
[6]; intravenously
  dose at which no lethalness was observed: 10 grams per kg of body weight
[6]; orally
  dose at which no lethalness was observed: 27.5 grams per kg of body weight
[7]
  solubility in alcohol: not very soluble in alcohol
  solubility in water: rather soluble in water
[8]; four weeks and three months
  clinically detectable anomalies: no clinically detectable anomalies were observed
[8]; versus control animals
  weight development: comparable to that observed in control animals
[9]
  glucose and sorbose in the urine by chromatographic examination: absence of glucose and the presence of sorbose
[1]; 0 hours
  pH of medium: 7.0
  NaOH necessary for neutralization: 2.50 mL
[1]; 3 hours
  pH of medium: 6.80
  NaOH necessary for neutralization: 2.25 mL
[1]; 6 hours
  pH of medium: 6.90
  NaOH necessary for neutralization: 2.20 mL
[1]; 10 hours
  pH of medium: 6.80
  NaOH necessary for neutralization: 1.90 mL
[1]; 24 hours
  pH of medium: 6.80
  NaOH necessary for neutralization: 1.90 mL
[1]
  formation of acids / acidification (conclusion): does not give rise to the formation of acids or to a lowering of the pH; also recorded: does not lead, by fermentation by bacteria of the mouth, to the production of fermentation acids or to a lowering of the pH; also recorded: no formation of acids or lowering of the pH; also recorded: does not give rise to the formation of acids by oral bacteria
[1]; oral bacteria
  cariogenicity (conclusion): non-cariogenic
[10]; ROCKFELLER mice and WISTAR rats
  toxicity (acute, subacute and chronic): devoid of acute, subacute and chronic toxicity; also recorded: absence of acute toxicity
[10]; [16]
  clinical and biological tolerance: tolerated perfectly on the clinical and biological planes
  histologically detectable visceral lesion: does not result in any histologically detectable visceral lesion
man
  tolerance in man: well tolerated
  total reducing power of the blood in man: heightening of the total reducing power of the blood, which disappeared in a few hours
  true glycemia in man: did not produce any variation in the true glycemia
[11]; 330 mg/100 g oral, 13 weeks
  physiological proteinuria (conclusion): does not lead to a significant modification of the physiological proteinuria
  reducing power in the urine (conclusion): causes the appearance of the reducing power in the urine
  urinary ionogram (conclusion): does not modify the urinary ionogram
  urinary pH (conclusion): does not modify the urinary pH
[11]; [17]
  urinary potassium: 1.10 meq/24 h and 1.03 meq/24 h and 1.68 meq/24 h and 1.26 meq/24 h and 1.48 meq/24 h and 1 meq/24 h
  urinary total reducing power: 56 mg/24 h and 30 mg/24 h and 39 mg/24 h and 38 mg/24 h and 35 mg/24 h and 28 mg/24 h
[11]; [18]
  urinary chlorides: 1.27 meq/24 h and 0.90 meq/24 h and 1.11 meq/24 h and 1.56 meq/24 h and 1.00 meq/24 h and 1.46 meq/24 h
  urinary pH: 8.5 and 8.2 and 9.2 and 9.1
[11]; [19]
  urinary chlorides: 0.92 meq/24 h and 0.79 meq/24 h and 0.70 meq/24 h and 0.90 meq/24 h and 1.08 meq/24 h and 0.76 meq/24 h
  urinary pH: 9 and 8.5 and 8.8 and 9.1
  urinary potassium: 1.19 meq/24 h and 0.99 meq/24 h and 1.20 meq/24 h and 1.26 meq/24 h and 1.08 meq/24 h
  urinary sodium: 0.39 meq/24 h and 0.34 meq/24 h and 0.54 meq/24 h and 0.45 meq/24 h and 0.46 meq/24 h and 0.61 meq/24 h
  urinary total reducing power: 36 mg/24 h and 31 mg/24 h and 32 mg/24 h and 41 mg/24 h
[11]; during oral administration, 330 mg/100 g, 13 weeks
  glycosuria: No glycosuria was detected; also recorded: does not result in true glycosuria
[12]
  anatomical anomaly of the viscera: no anatomical anomaly was found
  histopathological change of structure of the organs: did not enable any histopathological change of structure of the organs examined to be detected
[13]; intravenously
  dose at which no lethalness was observed: 5.5 grams per kg of body weight
[13]; orally
  dose at which no lethalness was observed: 11 grams per kg of body weight
[14]
  LD50: 12800 mg/kg
[15]
  serobiogram (conclusion): does not modify the serobiogram
  total reducing power of the serum (conclusion): does not modify the value of the true glycemia or that of the total reducing power of the serum

## O=C[C@H](O)[C@@H](O)[C@H](O)[C@H](O)CO [dextrose]
[1]; 0 hours
  pH of medium: 7.0
  NaOH necessary for neutralization: 2.50 mL
[1]; 3 hours
  pH of medium: 6.90
  NaOH necessary for neutralization: 2.25 mL
[1]; 6 hours
  pH of medium: 6.80
  NaOH necessary for neutralization: 2.40 mL
[1]; 10 hours
  pH of medium: 6.50
  NaOH necessary for neutralization: 2.80 mL
[1]; 24 hours
  pH of medium: 5.30
  NaOH necessary for neutralization: 5.70 mL
[1]
  formation of acids / acidification (conclusion): distinct acidification
  lowering of the pH to: 5.3
[2]
  formation of acids and lowering of pH under the action of mouth bacteria (general statement): give rise to a lowering of the pH and a considerable production of acids

## OC[C@@H](O)[C@@H](O)[C@H](O)[C@H](O)CO [mannitol]
[3]; in vivo
  laxative effect: laxative in high doses

## O=C(CO)[C@@H](O)[C@H](O)[C@H](O)CO [levulose, reference compound]
[7]; printed as "hydroscopic"
  hygroscopicity: very hydroscopic

## cyclamates
[3]; in vivo
  harmfulness: subject of serious reservations on the part of the medical profession in regards to their harmfulness
